Among the data in US20060264460A1 (Wyeth, priority 2005, published 2006) are IC50 values, retold here.

A value given as a limit tells only on which side of the number the result lay.

In the first assay the target is T1, human Cot/Tpl2 kinase (Homo sapiens, UniProt P41279).
T1 construct: human Cot/Tpl2 kinase construct encoding residues 30-398; 6His (N); made in house; host or cells: Sf9 insect cells, baculovirus system (BD Biosciences)
T1 sequence (P41279 30-398): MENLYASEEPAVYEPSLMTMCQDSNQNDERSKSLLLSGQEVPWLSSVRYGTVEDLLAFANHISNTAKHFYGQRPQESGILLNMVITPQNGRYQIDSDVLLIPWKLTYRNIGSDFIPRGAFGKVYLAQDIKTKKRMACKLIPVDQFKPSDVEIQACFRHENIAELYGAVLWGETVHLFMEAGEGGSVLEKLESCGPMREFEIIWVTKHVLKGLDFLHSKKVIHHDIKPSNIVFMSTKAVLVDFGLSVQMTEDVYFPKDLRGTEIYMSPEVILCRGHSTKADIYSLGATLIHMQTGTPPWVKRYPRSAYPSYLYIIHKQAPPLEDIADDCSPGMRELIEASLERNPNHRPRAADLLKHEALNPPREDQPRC
Description: Tpl2/Cot kinase assay: GST-MEK1 phosphorylation detected by ELISA (DELFIA Eu). It is filed as biochemical. To be noted: 0.4 nM Tpl2, 35 nM GST-MEK1, 50 uM ATP, 1 h at 30° C. In short, it runs like this:
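His-tagged human Tpl2 from Sf9 cells, Ni-affinity and size-exclusion purified (monomer). 0.4 nM Tpl2 with 35 nM GST-MEK1, 50 uM ATP, MOPS pH 7.2, 1% DMSO, 1 h at 30° C; EDTA stop. MEK1 Ser217/221 phosphorylation detected by anti-phospho-MEK1 and Eu-labelled secondary ELISA; IC50 fitted.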
`CCOC(OCC)c1[nH]nnc1CNc1cc(Br)c2ncc(C#N)c(Nc3ccc(F)c(Cl)c3)c2c1` [Example 293, 8-Bromo-4-(3-chloro-4-fluoro-phenylamino)-6-[(5-diethoxymethyl-1H-[1,2,3]triazol-4-ylmethyl)-amino]-quinoline-3-carbonitrile] showed a half-inhibitory concentration (IC50) of 13 nM.
The same measure, in the same setting: the figure for `CN(C)C(=O)c1cc(NCc2ccccn2)cc2c(Nc3ccc(F)c(Cl)c3)c(C#N)cnc12` [Example 91, 4-(3-chloro-4-fluorophenylamino)-3-cyano-N,N-dimethyl-6-(pyridin-2-ylmethylamino)quinoline-8-carboxamide] is 360 nM; for `N#Cc1cnc2c(Cl)cc(NCc3ccc(S(N)(=O)=O)cc3)cc2c1Nc1ccc(F)c(Cl)c1` [Example 186, 4-((8-chloro-4-(3-chloro-4-fluorophenylamino)-3-cyanoquinolin-6-ylamino)methyl)benzenesulfonamide] it is 45 nM.
`Cc1nn(C)c(Cl)c1CNc1ccc2ncc(C#N)c(Nc3ccc(F)c(Cl)c3)c2c1` [Example 132, 6-((5-chloro-1,3-dimethyl-1H-pyrazol-4-yl)methylamino)-4-(3-chloro-4-fluorophenylamino)quinoline-3-carbonitrile] returned an IC50 of 17300 nM.
The molecule `CC(C)(C)OC(=O)N1CCC(CNc2cc(Cl)c3ncc(C#N)c(Nc4ccc(F)c(Cl)c4)c3c2)CC1` [Example 322, tert-butyl 4-((8-chloro-4-(3-chloro-4-fluorophenylamino)-3-cyanoquinolin-6-ylamino)methyl)piperidine-1-carboxylate] showed a 50% inhibitory concentration (IC50) of 2120 nM.
On the same count and under the same terms, the figure for `N#Cc1cnc2c(-c3ccsc3)cc(NCc3cccnc3)cc2c1Nc1cccc(Cl)c1` [Example 100, 4-(3-chlorophenylamino)-6-(pyridin-3-ylmethylamino)-8-(thiophen-3-yl)quinoline-3-carbonitrile] is more than 40000 nM.

Still in this assay, the particulars now being: Table 2; Tpl2/Cot kinase, GST-MEK1 substrate, 50 uM ATP.
In turn, `N#Cc1cnc2c(Br)cc(NCC(=O)O)cc2c1Nc1ccc(F)c(Cl)c1` [Example 630] had an IC50 of 140 nM.
Consider `Cn1nccc1CNc1cc(Br)c2ncc(C#N)c(Nc3ccc(F)c(Cl)c3)c2c1` [Example 446], for which the IC50 is 98 nM.
Still for that read-out and setting: the figure for `N#Cc1cnc2ccc(N)cc2c1Nc1ccc(Cc2ccccc2)cc1` [Example 390] is 43 nM; for `N#Cc1cnc2c(Cl)cc(N)cc2c1Nc1ccc(F)c(Cl)c1` [Example 409] it is 920 nM; for `CN(C)CCC(c1cccnc1)n1cc(CNc2cc(Cl)c3ncc(C#N)c(Nc4ccc(F)c(Cl)c4)c3c2)nn1` (stereo not drawn) [Example 588] it is 36 nM.
In turn, `N#Cc1cnc2c(Br)cc(NCc3cc(-c4ccccc4)[nH]n3)cc2c1Nc1ccc(F)c(Cl)c1` [Example 454] displayed a concentration for half-maximal inhibition (IC50) of 330 nM.

Staying with this assay, now noted: Tpl2/Cot kinase, GST-MEK1 substrate, 50 uM ATP.
Regarding `N#Cc1cnc2ccc(NC3CCN(Cc4ccccc4)CC3)cc2c1Nc1ccc(F)c(Cl)c1` [Example 657], half-maximal inhibition (IC50) was put at 1700 nM.
On the same count and under the same terms, the figure for `CC(C)(C)OC(=O)N1CCN(CCCn2cc(CNc3cc(Cl)c4ncc(C#N)c(Nc5ccc(F)c(Cl)c5)c4c3)nn2)CC1` [Example 765] is 230 nM.
Take `N#Cc1cnc2c(Cl)cc(NCc3cn(CC(=O)Nc4cccnc4)nn3)cc2c1Nc1ccc(F)c(Cl)c1` [Example 821]: the IC50 is 2.7 nM.
Turning to `N#Cc1cnc2c(Cl)cc(NCc3cn(CCCN4C(=O)c5ccccc5C4=O)nn3)cc2c1Nc1ccc(F)c(Cl)c1` [Example 852], the IC50 was determined as 120 nM.
Turning to `CC(=O)N1CCC[C@H]1CNc1cc(Cl)c2ncc(C#N)c(Nc3ccc(F)c(Cl)c3)c2c1` [Example 810], 54 nM corresponded to half-maximal inhibition (IC50).
On the same count and under the same terms, next, `N#Cc1cnc2c(Cl)cc(NCC(=O)NCCN3CCOCC3)cc2c1Nc1ccc(F)c(Cl)c1` [Example 777]: 530 nM.

Staying with this assay, now noted: Tpl2/Cot kinase, GST-MEK1 substrate, 50 uM ATP, 1 h at 30° C.; Table 2.
In the case of `CC(C)N1CC=C(c2cncc(CNc3cc(Cl)c4ncc(C#N)c(Nc5ccc(F)c(Cl)c5)c4c3)c2)CC1` [Example 1054], the concentration for half-maximal inhibition (IC50) came to 1300 nM.
Consider `N#Cc1cnc2c(Cl)cc(NCc3cn(CCN4CCCCCC4)nn3)cc2c1NC1CCC2(CCCCC2)CC1` [Example 975], for which the IC50 was more than 3000 nM.
`N#Cc1cnc2c(Cl)cc(NCc3cn(C4CCC(NC5CCCC5)CC4)nn3)cc2c1Nc1ccc(F)c(Cl)c1` (stereo not drawn) [Example 1038]: the IC50 was 17 nM.
